Measurements reported in US4748161A, “Triterpenyl esters of organic acids and hypolipidemic agents composed of them” (Amano Pharmaceutical Co., Ltd., priority 1984, dated 1988).

Test system: serum lipids and serum lipid hydroperoxide
Test: Pharmacological test method A for anti-hyperlipidemic activity (serum lipids, 2 weeks feeding)
Assay type: in vivo, male Wistar strain rats
Conditions: for AI [(TC - HDL-C)/(HDL-C)] / HDL-C in serum / LPO in serum / PL in serum / TC in serum / TG in serum: 1% in hyperlipidemic diet, 2 weeks; for AI % of diff. / AI Diff. / HDL-C % of diff. / HDL-C Diff. / LPO % of diff. / LPO Diff. / PL % of diff. / PL Diff. / TC % of diff. / TC Diff. / TG % of diff. / TG Diff.: versus control group
Method: Male Wistar strain rats (100±lg, each 10 rats were formed into a group) were used as test animals. Diet for the control group was prepared by thorough mixing of 20% casein, 62.5% glucose, 10% hydrogenated coconut oil, 2% agar powder, 4% vitamin-containing salt mixture, 1% cholesterol, and 0.5% cholic acid (this composition is described by Fukushima et al, in "Yakugaku Zassi", 89, No. 6, pp. 857-862 (1962)). Diet for the test groups was prepared by good mixing of 1% each of cycloartenol, 24-methylenecycloartanol, and cyclobranol with the control group's diet. Each rat was kept in a cage at a constant temperature of 23±1° C. and a constant R.H. of 55±5% for 2 weeks, during which 10 g/day of the prescribed was given. Finally the rats were fasted from food except water for 16 hours (from 4 p.m. of the 14th test day to 8 a.m. of the 15th test day), and under anesthesia with pentbarbital sodium (tradename: Nembutal), blood was taken from each rat through the descending abdominal arota. Then, TC, HDL-C, TG, PL, and LPO in the serum were measured in the manner that will be described below.
A TC kit-K (supplied by Nippon Shoji Kaisha, Ltd.) was used. The principle of this determination is as follows: The ester of cholesterol in the serum is hydrolyzed with cholesterol-ester hydrolase into free cholesterol and fatty acids. All the free cholesterol is oxidized with cholesterol oxydase to form Δ^4 -cholestenone and hydrogen peroxide. Phenol and 4-aminoantipyrin are oxidatively condensed together by the formed hydrogen peroxide and peroxydase. The produced red quinone coloring matter is measured by colorimetry for absorbance at 500 nm using a spectrophotometer, thereby determining the TC:
The color-developing liquid (3.0 ml) is well mixed with the sample serum (0.02 ml). The mixture once heated at 37° C. for 15 minutes, is measured for absorbance at 500 nm with a spectrophotometer. The found absorbance is denoted by EA. On the other hand, the color-developing liquid (3.0 ml) is well mixed with the standard solution. The mixture is treated and measured for absorbance at 500 nm in the same manner as the above. This found absorbance is denoted by ES. Both EA and ES are determined with reference to the value of the blank test conducted using the color-developing liquid (3.0 ml) alone. [formula]
An HDL-C kit-N (supplied by Nippon Shoji Kaisha, Ltd.) was used. […] (VLDL) and lo density lipoprotein (LDL) in the serum is precipitated by the action of heparin. The precipitate is separated by centrifugation. High density lipoprotein (HDL) is dissolved in the separated supernatant. Esters of cholesterol in this fraction is hydrolyzed with cholesterol-ester hydrolase into free cholesterol and fatty acids. All the free cholesterol is oxidized with cholesterol oxydase to form Δ^4 -cholestenone and hydrogen peroxide. Phenol and 4-aminoantipyrine are oxidatively condensed together by the formed hydrogen peroxide and peroxydase. The produced red quinone coloring matter is measured by colorimetry for absorbance at 500 nm using a spectrophotometer, thereby determining the HDL-C.
A PL kit-K (supplied by Nippon Shoji Kaisha, Ltd.) was used for the determination. Lecithin, sphingomyelin, and lysolecithin are decomposed by phospholipase D into choline and phosphatidic acid, N-acylsphingosyl phosphate, or lysophosphatidic acid, respectively. The resulting choline is quantitatively decomposed by choline oxydase into hydrogen peroxide and betaine. With this hydrogen peroxide, and aid of peroxydase, phenol and 4-aminoantipyrin are condensed into red quinone pigment, then the absorbance at 500 nm of which is measured with a spectrophotometer, thereby determining the PL.
Serum TG level was determined by means of a triglyceride test kit (supplied by Wako Pure Chemical Industries, Ltd.) in which acetylacetone is used for a reagent, in the following manner: Serum proteins are precipitated, when isopropyl alcohol and the sample serum are mixed. […]

SMILES | AI [(TC - HDL-C)/(HDL-C)] | HDL-C in serum | LPO in serum | PL in serum | TC in serum | TG in serum | AI % of diff. | AI Diff. | HDL-C % of diff. | HDL-C Diff. | LPO % of diff. | LPO Diff. | PL % of diff. | PL Diff. | TC % of diff. | TC Diff. | TG % of diff. | TG Diff.
CC(C)=CCCC(C)C1CCC2(C)C3CCC4C(C)(C)C(OC(=O)c5cccc(N)c5)CCC45CC35CCC12C (centres unmarked) [Example 23, cycloartenyl-m-aminobenzoate] | 1.506 | 58.9 mg/dL | 2.06 nmol/mL | 133.1 mg/dL | 147.6 mg/dL | 20.2 mg/dL | -18.5% | -0.341 | +0.3% | +0.2 mg/dl | -12.0% | -0.28 nmol/mL | -10.3% | -15.3 mg/dL | -11.7% | -19.5 mg/dL | -18.5% | -4.6 mg/dL
CC(C)=C(C)CCC(C)C1CCC2(C)C3CCC4C(C)(C)C(OC(=O)/C=C/c5ccc(O)c(O)c5)CCC45CC35CCC12C (centres unmarked) [Example 32, cyclobranyl-3,4-dihydroxycinnamate] | 1.135 | 89.2 mg/dL | 2.06 nmol/mL | 168.2 mg/dL | 190.4 mg/dL | 40.7 mg/dL | -32.6% |  | +10.2% | +8.3 mg/dl | -10.7% | -0.25 nmol/mL | -6.4% | -11.5 mg/dL | -12.3% | -26.7 mg/dL | -4.8% | -2.1 mg/dL
CC(C)=C(C)CCC(C)C1CCC2(C)C3CCC4C(C)(C)C(OC(=O)c5ccc(O)c(O)c5)CCC45CC35CCC12C (centres unmarked) [Example 39, cyclobranyl-3,4-dihydroxybenzoate] | 0.803 | 98.1 mg/dL | 1.99 nmol/mL | 155.1 mg/dL | 176.9 mg/dL | 39.8 mg/dL | -52.3% | -0.881 | +21.2% | +17.2 mg/dl | -14.0% | -0.32 nmol/mL | -13.7% | -24.6 mg/dL | -18.5% | -40.2 mg/dL | -6.9% | -3.0 mg/dL
CC(=O)Nc1ccc(C(=O)OC2CCC34CC35CCC3(C)C(C(C)CCC=C(C)C)CCC3(C)C5CCC4C2(C)C)cc1 (centres unmarked) [Example 20, cycloartenyl-p-acetamidobenzoate] | 0.867 | 90.4 mg/dL | 2.02 nmol/mL | 143.3 mg/dL | 168.8 mg/dL | 35.2 mg/dL | -29.1% | -0.355 | +4.5% | +3.9 mg/dl | -9.7% | -0.22 nmol/mL | -17.0% | -29.3 mg/dL | -12.2% | -23.4 mg/dL | -3.0% | -1.1 mg/dL
CCOc1cc(C(=O)OC2CCC34CC35CCC3(C)C(C(C)CCC(C)=C(C)C)CCC3(C)C5CCC4C2(C)C)ccc1O (centres unmarked) [Example 62, cyclobranyl-3-ethoxy-4-hydroxybenzoate] | 0.474 | 108.2 mg/dL | 1.94 nmol/mL | 156.5 mg/dL | 159.5 mg/dL | 32.0 mg/dL | -52.7% | -0.528 | +12.5% | +12.0 mg/dl | -16.8% | -0.39 nmol/mL | -13.5% | -24.4 mg/dL | 17.2% | -33.1 mg/dL | -3.6% | -1.2 mg/dL
CC(C)=C(C)CCC(C)C1CCC2(C)C3CCC4C(C)(C)C(OC(=O)c5cccnc5)CCC45CC35CCC12C (centres unmarked) [Example 50, cyclobranylnicotinate] | 0.697 | 95.7 mg/dL | 1.87 nmol/mL | 138.8 mg/dL | 162.4 mg/dL | 34.7 mg/dL | -43.0% | -0.525 | 10.6% | +9.2 mg/dl | -16.7% | -0.37 nmol/mL | -19.6% | -33.8 mg/dL | -15.5% | -29.8 mg/dL | -4.3% | -1.6 mg/dL
CC(C)=CCCC(C)C1CCC2(C)C3CCC4C(C)(C)C(OC(=O)c5ccc(O)cc5)CCC45CC35CCC12C (centres unmarked) [Example 10, cycloartenyl-p-hydroxybenzoate] | 1.543 | 57.6 mg/dL | 1.73 nmol/mL | 123.3 mg/dL | 146.5 mg/dL | 27.3 mg/dL | -12.7% | -0.224 | -4.3% | -2.6 mg/dL | -31.6% | -0.80 nmol/mL | -9.8% | -13.4 mg/dL | -12.1% | -20.1 mg/dL | +0.4% | +0.1 mg/dl
C=C(CCC(C)C1CCC2(C)C3CCC4C(C)(C)C(OC(=O)C=Cc5ccc(OC(C)=O)cc5)CCC45CC35CCC12C)C(C)C (centres unmarked) [Example 83, 24-Methylenecycloartanyl ester of p-acetoxycinnamic acid] | 1.059 | 93.3 mg/dL | 2.02 nmol/mL | 162.1 mg/dL | 192.1 mg/dL | 41.1 mg/dL | -37.1% | -0.625 | +15.3% | +12.4 mg/dl | -12.7% | -0.29 nmol/mL | -9.8% | -17.6 mg/dL | -11.5% | -25.0 mg/dL | -4.0% | -1.7 mg/dL
CCCOc1cc(C=CC(=O)OC2CCC34CC35CCC3(C)C(C(C)CCC=C(C)C)CCC3(C)C5CCC4C2(C)C)ccc1O (centres unmarked) [Example 74, cycloartenyl-4-hydroxy-3-propoxycinnamate] | 0.787 | 92.4 mg/dL | 2.09 nmol/mL | 162.1 mg/dL | 165.1 mg/dL | 33.1 mg/dL | -21.5% | -0.215 | -4.0% | -3.8 mg/dL | -10.4% | -0.24 nmol/mL | -10.4% | -18.8 mg/dL | 14.3% | -27.5 mg/dL | -0.3% | -0.1 mg/dL
